Marks after values point to notes of the source that are not given here.
Tests used:
[1] = system: diabetic db/db mice; test: IPGTT after 14 days administration to diabetic db/db mice; format: in vivo; details: 5 mg/kg SC twice a day for 14 days, vs saline
Method: Then, mice were fasted overnight and IPGTT was performed. After initial blood glucose measurement, 2 g/kg glucose solution was administered IP and glucose followed every hour for 7 hours. Glucose level is shown at the end of the experiment (420 min).
Db/db male mice and their respective controls were acclimatized after arrival, housed 2-3 mice per cage, and used in the experiment at age 11-12 weeks. Mice had free access to food and water, and were subjected to a 14-day experiment. […] The body weight of the mice was followed simultaneously. Following 14 days of treatment, mice were fasted overnight and IPGTT was performed. After initial blood glucose measurement, 2 g/kg glucose solution was administered IP, and glucose levels were measured every hour for 7 hours.

[2] = target: T1, rat PrRP receptor (Rattus norvegicus, UniProt Q64121); test: Competitive binding in RC-4B/C rat pituitary cells (125I-rat PrRP31)
T1 construct: host or cells: RC-4B/C rat pituitary cell line
T1 sequence (Q64121 1-370): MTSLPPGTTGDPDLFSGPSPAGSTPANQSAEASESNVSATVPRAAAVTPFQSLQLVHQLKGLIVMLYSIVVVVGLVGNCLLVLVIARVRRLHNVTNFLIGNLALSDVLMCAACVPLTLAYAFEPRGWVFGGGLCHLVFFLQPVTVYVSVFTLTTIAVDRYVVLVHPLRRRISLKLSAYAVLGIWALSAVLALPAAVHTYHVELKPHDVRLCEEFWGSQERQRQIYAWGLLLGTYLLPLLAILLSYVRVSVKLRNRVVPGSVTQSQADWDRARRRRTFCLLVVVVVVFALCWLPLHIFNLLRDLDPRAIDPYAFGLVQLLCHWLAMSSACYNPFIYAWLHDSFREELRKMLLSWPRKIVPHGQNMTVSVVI
Method in brief: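 Intact rat pituitary RC-4B/C cells incubated 60 min at room temperature with […] rat 125I-PrRP31 and unlabeled analog (10^−11 to 10^−4 mol·l^−1) in HEPES pH 7.4 buffer. Cell-bound radioactivity γ-counted after NaOH lysis; one-site competition fit.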

[3] = system: ZDF diabetic rats; test: 21 days repeated administration in diabetic ZDF rats (food intake, OGTT, metabolic parameters); format: in vivo
Method: (§1) Rats were subjected to a 21-day food intake experiment. ZDF rats were IP injected with either phosphate-buffered saline pH6 (control) or compound 43 or 52 at a dose of 1 and 5 mg/kg (n=8), twice a day for 21 days. After 21 days of treatment, rats were fasted overnight and OGTT was performed. After initial blood glucose measurement, 2 g/kg glucose solution was administered by oral gavage. Blood glucose was then measured at 15, 30, 60, 90, 120 and 180 min.
NMRI mice, C57BL/6 mice, and Wistar rats (AnLab, Prague, Czech Republic) were housed in a temperature of 23° C. and a daily cycle of 12 h light and dark (light from 6:00). They were given ad libitum water and a standard chow diet that contained 25, 9 and 66% of calories of protein, fat and carbohydrate respectively. Energy content of the feed was 3.4 kcal/g (St-1, Mlýn Kocanda, Czech Republic). Db/db mice and their controls (C57BL/6 background) were obtained from Taconic (Denmark), housed under the same conditions as described above, and fed by Altromin (Taconic, Denmark). ZDF-Lepr^fa/Crl, diabetic fa/fa male rats were obtained from Charles River (France), housed under same conditions as described above, and fed with a Purina 5008 diet (IPS Product Supplies Limited, UK). All experiments followed the ethical guidelines for animal experiments and the law of the Czech Republic Nr. 246/1992.
The ZDF rats were treated with vehicle or analogs 43 and 52 (1 and 5 mg/kg IP) dissolved in phosphate buffered saline, pH 6, twice daily for 21 days and sacrificed on day 22. Food intake was measured daily up to day 22. Leptin, insulin, cholesterol and HbA1c levels were measured on day 21. Glucose tolerance test (OGTT) was also performed on day 21.
as §1, with “min. […] The statistical significance, denoted by the asterisk (*), was *P<0.05.” for “min.”

[4] = ZDF rats, 1 mg/kg IP twice daily
[5] = ZDF rats, 5 mg/kg IP twice daily
[6] = ZDF rats, day 21, 1 mg/kg IP twice daily
[7] = ZDF rats, day 21, 5 mg/kg IP twice daily

CCCCCCCCCCCCCCCC(=O)N[C@@H](CO)C(=O)N[C@@H](CCCNC(=N)N)C(=O)N[C@H](C(=O)N[C@@H](Cc1c[nH]cn1)C(=O)N[C@@H](CCCNC(=N)N)C(=O)N[C@@H](Cc1c[nH]cn1)C(=O)N[C@@H](CO)C(=O)N[C@@H](CCSC)C(=O)N[C@@H](CCC(=O)O)C(=O)N[C@H](C(=O)N[C@@H](CCCNC(=N)N)C(=O)N[C@H](C(=O)N1CCC[C@H]1C(=O)N[C@@H](CC(=O)O)C(=O)N[C@H](C(=O)N[C@@H](CC(N)=O)C(=O)N1CCC[C@H]1C(=O)N[C@@H](C)C(=O)N[C@@H](Cc1c[nH]c2ccccc12)C(=O)N[C@@H](Cc1ccc(O)cc1)C(=O)N[C@@H](C)C(=O)N[C@@H](CO)C(=O)N[C@@H](CCCNC(=N)N)C(=O)NCC(=O)N[C@H](C(=O)N[C@@H](CCCNC(=N)N)C(=O)N1CCC[C@H]1C(=O)N[C@H](C(=O)NCC(=O)N[C@@H](CCCNC(=N)N)C(=O)N[C@@H](Cc1ccccc1)C(N)=O)C(C)C)[C@@H](C)CC)[C@@H](C)CC)[C@@H](C)O)[C@@H](C)CC)[C@@H](C)O [Analog 43]
IPGTT glucose level at end of experiment (420 min) [1]: significantly lower | Ki [2]: 0.95 ± 0.35 nM | Displacement of rat 125I-PrRP binding ([2]; RC-4B/C cells, rat PrRP receptor): nmol·l^−1 range | % of PrRP31, RC-4B/C rat pituitary cells ([2]; affinity relative to PrRP31): 519% | Food intake in free fed ZDF diabetic rats ([3]; 5 mg/kg IP twice daily, vs vehicle): significantly lowered | Cumulative food intake Day 1 [3, 4]: 40.8 ± 2.1 g | Cumulative food intake Day 1-7 [3, 4]: 299.9 ± 8.9 g | Cumulative food intake Day 1-14 [3, 4]: 572.5 ± 15.5 g | Cumulative food intake Day 1-21 [3, 4]: 817.7 ± 22.1 g | Cumulative food intake Day 1 [3, 5]: 34.2 g | Cumulative food intake Day 1-7 [3, 5]: 273.3 ± 20.4** g | Cumulative food intake Day 1-14 [3, 5]: 528.9 ± 36.0** g | Cumulative food intake Day 1-21 [3, 5]: 768.2 g | OGTT blood glucose levels ([3]; ZDF rats, 5 mg/kg twice daily for 21 days): significant lowering | Blood cholesterol levels ([3]; ZDF rats, 1 and 5 mg/kg twice daily, vs controls): significantly lowered | Cholesterol [3, 6]: 3.10 ± 0.12* mmol/l | Insulin [3, 6]: 267.69 ± 40.69 pmol/L | Leptin [3, 6]: 13297 ± 921 pg/mL | Cholesterol [3, 7]: 2.91 ± 0.12** mmol/l | Insulin [3, 7]: 271.84 ± 34.00 pmol/L | Leptin [3, 7]: 16560 ± 4843 pg/mL
